ChEMBL document CHEMBL1144322, “Structure-based design of potent and selective inhibitors of collagenase-3 (MMP-13)” (Bioorg Med Chem Lett, 2005)

Legend:
[1] = target: T1, Collagenase 3 (Homo sapiens, UniProt P45452); assay: Inhibition of matrix metalloprotease-13
[2] = target: T2, Interstitial collagenase (Homo sapiens, UniProt P03956); assay: Inhibition of matrix metalloprotease-1
T2 sequence (P03956 whole entry): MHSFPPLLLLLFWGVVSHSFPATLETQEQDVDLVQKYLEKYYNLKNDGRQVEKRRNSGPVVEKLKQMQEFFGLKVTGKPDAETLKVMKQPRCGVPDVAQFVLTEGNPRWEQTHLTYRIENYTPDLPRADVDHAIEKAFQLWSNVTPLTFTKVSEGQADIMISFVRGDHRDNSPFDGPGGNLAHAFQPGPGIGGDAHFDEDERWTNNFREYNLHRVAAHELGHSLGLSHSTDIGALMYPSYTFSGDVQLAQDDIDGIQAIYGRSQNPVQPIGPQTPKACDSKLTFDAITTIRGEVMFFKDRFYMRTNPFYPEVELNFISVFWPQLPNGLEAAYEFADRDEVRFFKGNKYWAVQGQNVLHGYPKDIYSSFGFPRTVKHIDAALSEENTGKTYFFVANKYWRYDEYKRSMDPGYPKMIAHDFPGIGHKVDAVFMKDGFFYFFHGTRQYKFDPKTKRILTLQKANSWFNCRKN

[3] = target: 72 kDa type IV collagenase (Homo sapiens, UniProt P08253); assay: Inhibition of matrix metalloprotease-2
72 kDa type IV collagenase, sequence (P08253 whole entry): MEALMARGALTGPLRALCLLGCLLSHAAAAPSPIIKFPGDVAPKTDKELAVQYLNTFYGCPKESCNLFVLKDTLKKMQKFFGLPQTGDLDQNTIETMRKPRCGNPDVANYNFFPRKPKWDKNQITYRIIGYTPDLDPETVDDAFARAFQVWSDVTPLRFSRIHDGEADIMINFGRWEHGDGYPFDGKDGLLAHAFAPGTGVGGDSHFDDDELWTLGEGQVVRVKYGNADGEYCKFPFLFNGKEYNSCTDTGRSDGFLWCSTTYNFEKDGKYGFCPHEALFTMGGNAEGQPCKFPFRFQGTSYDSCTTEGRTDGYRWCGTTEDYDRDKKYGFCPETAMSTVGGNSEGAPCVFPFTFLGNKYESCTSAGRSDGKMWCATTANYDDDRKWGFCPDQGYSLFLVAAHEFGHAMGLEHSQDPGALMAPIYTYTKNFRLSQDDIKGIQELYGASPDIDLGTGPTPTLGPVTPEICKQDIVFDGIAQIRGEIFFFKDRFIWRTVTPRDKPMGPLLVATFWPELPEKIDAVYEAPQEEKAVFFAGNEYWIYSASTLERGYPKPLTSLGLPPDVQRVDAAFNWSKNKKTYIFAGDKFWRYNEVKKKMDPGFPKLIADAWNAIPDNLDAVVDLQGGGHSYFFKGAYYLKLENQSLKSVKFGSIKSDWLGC

[4] = target: Stromelysin-1 (Homo sapiens, UniProt P08254); assay: Inhibition of matrix metalloprotease-3
Stromelysin-1, sequence (P08254 whole entry): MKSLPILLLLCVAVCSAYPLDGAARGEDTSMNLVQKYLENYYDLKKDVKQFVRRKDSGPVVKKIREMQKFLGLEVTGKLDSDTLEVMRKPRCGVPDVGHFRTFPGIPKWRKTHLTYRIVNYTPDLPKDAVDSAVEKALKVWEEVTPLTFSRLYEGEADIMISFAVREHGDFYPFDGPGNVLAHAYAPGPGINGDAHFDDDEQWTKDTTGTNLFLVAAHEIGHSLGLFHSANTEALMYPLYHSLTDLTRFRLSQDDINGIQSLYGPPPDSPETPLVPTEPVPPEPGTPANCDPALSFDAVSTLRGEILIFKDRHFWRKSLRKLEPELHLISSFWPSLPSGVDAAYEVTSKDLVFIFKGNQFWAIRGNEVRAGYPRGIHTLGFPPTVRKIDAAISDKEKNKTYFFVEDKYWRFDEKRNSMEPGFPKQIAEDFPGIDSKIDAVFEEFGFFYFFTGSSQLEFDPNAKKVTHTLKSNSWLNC

[5] = target: Matrix metalloproteinase-9 (Homo sapiens, UniProt P14780); assay: Inhibition of matrix metalloprotease-9
Matrix metalloproteinase-9, sequence (P14780 whole entry, the tested form may be a part): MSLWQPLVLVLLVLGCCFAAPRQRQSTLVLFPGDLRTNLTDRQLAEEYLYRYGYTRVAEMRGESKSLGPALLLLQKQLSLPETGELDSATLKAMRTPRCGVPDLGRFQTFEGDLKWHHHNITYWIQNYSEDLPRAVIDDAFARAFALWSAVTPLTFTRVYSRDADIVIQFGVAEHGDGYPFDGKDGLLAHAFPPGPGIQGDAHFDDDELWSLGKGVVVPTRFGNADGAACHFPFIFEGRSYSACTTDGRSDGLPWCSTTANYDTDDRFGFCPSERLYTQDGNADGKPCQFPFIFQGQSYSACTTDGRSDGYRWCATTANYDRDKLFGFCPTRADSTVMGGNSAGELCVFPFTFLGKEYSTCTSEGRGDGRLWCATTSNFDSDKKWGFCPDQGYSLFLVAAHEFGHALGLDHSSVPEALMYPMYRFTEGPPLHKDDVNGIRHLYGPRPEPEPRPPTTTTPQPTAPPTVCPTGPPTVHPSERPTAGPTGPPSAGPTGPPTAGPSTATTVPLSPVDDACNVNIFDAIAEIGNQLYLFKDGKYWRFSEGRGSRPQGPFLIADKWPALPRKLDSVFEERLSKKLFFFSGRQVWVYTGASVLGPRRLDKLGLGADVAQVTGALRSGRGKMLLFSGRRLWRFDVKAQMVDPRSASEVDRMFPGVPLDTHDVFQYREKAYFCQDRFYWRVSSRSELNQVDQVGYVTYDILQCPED

[6] = target: Disintegrin and metalloproteinase domain-containing protein 17 (Homo sapiens, UniProt P78536); assay: Inhibition of TNF-alpha converting enzyme (TACE, ADAM17)
Disintegrin and metalloproteinase domain-containing protein 17, sequence (P78536 whole entry, the tested form may be a part): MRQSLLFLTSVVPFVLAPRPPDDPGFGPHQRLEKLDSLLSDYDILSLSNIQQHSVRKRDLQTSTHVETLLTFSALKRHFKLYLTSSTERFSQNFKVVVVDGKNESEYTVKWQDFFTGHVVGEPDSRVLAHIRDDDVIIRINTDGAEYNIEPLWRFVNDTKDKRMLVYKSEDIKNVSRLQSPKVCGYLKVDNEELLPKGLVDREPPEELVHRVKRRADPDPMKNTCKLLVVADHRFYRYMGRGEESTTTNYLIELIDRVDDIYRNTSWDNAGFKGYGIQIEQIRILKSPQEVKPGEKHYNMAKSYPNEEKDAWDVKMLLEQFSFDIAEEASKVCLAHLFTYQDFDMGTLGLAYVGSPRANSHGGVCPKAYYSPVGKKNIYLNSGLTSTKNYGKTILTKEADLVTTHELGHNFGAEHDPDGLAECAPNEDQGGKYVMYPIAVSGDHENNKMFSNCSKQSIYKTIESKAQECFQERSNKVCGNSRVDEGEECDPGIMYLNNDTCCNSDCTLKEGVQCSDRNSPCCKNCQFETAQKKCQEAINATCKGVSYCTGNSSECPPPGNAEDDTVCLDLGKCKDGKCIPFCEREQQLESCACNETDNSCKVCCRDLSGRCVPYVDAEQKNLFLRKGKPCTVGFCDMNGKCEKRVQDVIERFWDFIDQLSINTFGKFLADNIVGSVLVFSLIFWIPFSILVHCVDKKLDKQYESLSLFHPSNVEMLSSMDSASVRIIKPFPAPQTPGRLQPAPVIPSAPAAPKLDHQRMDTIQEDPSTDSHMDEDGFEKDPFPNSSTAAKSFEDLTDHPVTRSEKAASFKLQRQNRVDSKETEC

[7] = target: T1, Collagenase 3; assay: Binding affinity for matrix metalloprotease 13

Structure (SMILES) | Ki [1] [nM] | Ki [2] [nM] | Ki [3] [nM] | Ki [4] [nM] | Ki [5] [nM] | Ki [6] [nM] | Ki [7] [nM]
O=C1NC(=O)C2(CCC(=O)N2c2ccc(Oc3cccc(Cl)c3)cc2)C(=O)N1 | 54 | – | – | – | – | – | –
O=C1NC(=O)C2(CCC(=O)N2c2ccc(-c3ccccc3)cc2)C(=O)N1 | 934 | – | – | – | – | – | –
O=C1NC(=O)C2(CCC(=O)N2c2ccccc2)C(=O)N1 | 2200 | – | – | – | – | – | –
O=C1NC(=O)C2(CCC(=O)N2c2ccc(Oc3ccc(C(=O)O)cc3)cc2)C(=O)N1 | 2.7 | > 5000 | 0.23 | 3200 | 0.72 | > 1000 | –
COC(=O)c1ccc(Oc2ccc(N3C(=O)CCC34C(=O)NC(=O)NC4=O)cc2)cc1 | 4.2 | > 5000 | 4.7 | 1300 | 1.2 | > 1000 | –
O=C1NC(=O)C2(CCC(=O)N2c2ccc(Br)cc2)C(=O)N1 | 130 | – | – | – | – | – | –
COc1ccncc1Oc1ccc(N2C(=O)CCC23C(=O)NC(=O)NC3=O)cc1 | 25 | – | – | – | – | – | –
O=C1NC(=O)C2(CCC(=O)N2c2ccc(OCc3ccccc3)cc2)C(=O)N1 | 1100 | – | – | – | – | – | –
COc1cccc(Oc2ccc(N3C(=O)CCC34C(=O)NC(=O)NC4=O)cc2)c1 | 1.9 | – | – | – | – | – | –
CCC1CC(=O)N(c2ccc(Oc3ccccc3)cc2)C12C(=O)NC(=O)NC2=O (stereo in doubt) | – | > 5000 | 0.4 | 92 | 0.87 | > 1000 | 0.54
O=C1NC(=O)C2(CCC(=O)N2c2ccc(Oc3ccc(Oc4ccccc4)cc3)cc2)C(=O)N1 | 0.33 | > 5000 | 1.8 | 110 | 1.9 | > 1000 | –
COc1ccccc1Oc1ccc(N2C(=O)CCC23C(=O)NC(=O)NC3=O)cc1 | 110 | – | – | – | – | – | –
O=C1NC(=O)C2(CCC(=O)N2c2ccc(Oc3ccccc3)cc2)C(=O)N1 | 4.7 | > 5000 | 1.6 | 4500 | 4.7 | > 1000 | –
CCC1CC(=O)N(c2ccc(Oc3ccccc3)cc2)C12C(=O)NC(=O)NC2=O (single isomer, unassigned) | – | > 5000 | 1.7 | 1200 | 7.2 | > 1000 | 4.1
O=C1NC(=O)C2(CCC(=O)N2c2ccc(Oc3ccc(Cl)cc3)cc2)C(=O)N1 | 0.95 | > 5000 | 0.43 | 430 | 0.72 | > 1000 | –
O=C1NC(=O)C2(CCC(=O)N2c2ccc(Oc3ccc4c(c3)OCO4)cc2)C(=O)N1 | 5.8 | – | – | – | – | – | –
